Measured values as given in ChEMBL document CHEMBL1155824, “Synthesis and antitumor activity of cyclodepsipeptide zygosporamide and its analogues” (Bioorg Med Chem Lett, 2008).

Tests used:
Assay type in all cases: functional, cell-based
SF-295 = test: Cytotoxicity against human SF295 cells
A549 = test: Cytotoxicity against human A549 cells
SF-268 = test: Cytotoxicity against human SF268 cells
HCT-116 = test: Cytotoxicity against human HCT116 cells
MDA-MB-231 = test: Cytotoxicity against human MDA-MB-231 cells

| SMILES | IC50 (SF-295) [µM] | IC50 (A549) [µM] | IC50 (SF-268) [µM] | IC50 (HCT-116) [µM] | IC50 (MDA-MB-231) [µM] |
| --- | --- | --- | --- | --- | --- |
| CC(C)C[C@@H]1OC(=O)[C@H](Cc2ccccc2)NC(=O)[C@H](C)NC(=O)[C@@H](CC(C)C)NC(=O)[C@H](Cc2ccccc2)NC1=O | > 50 | > 50 | > 50 | > 50 | > 50 |
| CC(C)C[C@@H]1NC(=O)[C@@H](CC(C)C)NC(=O)[C@H](Cc2ccccc2)NC(=O)[C@H](CC(C)C)OC(=O)[C@H](C)NC1=O | 6 | > 50 | 8.8 | 2.7 | 2.8 |
| CC(C)C[C@@H]1NC(=O)[C@@H](CC(C)C)NC(=O)[C@H](C)NC(=O)[C@H](CC(C)C)OC(=O)[C@H](Cc2ccccc2)NC1=O | 19.7 | 31 | 35 | > 50 | 7.5 |
| CC(C)C[C@@H]1NC(=O)[C@@H](C)NC(=O)[C@H](Cc2ccccc2)NC(=O)[C@H](CC(C)C)OC(=O)[C@H](Cc2ccccc2)NC1=O | 8.7 | > 50 | 10.4 | 2.1 | 5 |
| CC(C)C[C@@H]1NC(=O)[C@@H](CC(C)C)NC(=O)[C@H](Cc2ccccc2)NC(=O)[C@H](C)OC(=O)[C@H](Cc2ccccc2)NC1=O | 32 | > 50 | 31 | 7.8 | > 50 |
| CC(C)C[C@@H]1NC(=O)[C@H](Cc2ccccc2)NC(=O)[C@H](CC(C)C)NC(=O)[C@@H](CC(C)C)NC(=O)[C@H](Cc2ccccc2)NC1=O | 14.4 | 21 | 20.5 | 1.9 | > 50 |
| CC(=O)O[C@H]1C(=O)[C@@]2(C)[C@H]([C@H](OC(=O)c3ccccc3)[C@]3(O)C[C@H](OC(=O)[C@H](O)[C@@H](NC(=O)c4ccccc4)c4ccccc4)C(C)=C1C3(C)C)[C@]1(OC(C)=O)CO[C@@H]1C[C@@H]2O [PACLITAXEL] | 0.29 | 0.0231 | 0.0153 | 0.0136 | 0.0405 |
| CC(C)C[C@@H]1NC(=O)[C@@H](CC(C)C)NC(=O)[C@H](Cc2ccccc2)NC(=O)[C@H](CC(C)C)OC(=O)[C@H](Cc2ccccc2)NC1=O [ZYGOSPORAMIDE] | 4.2 | 2.5 | 4.6 | 22 | 5.7 |
